The values below come from PubChem BioAssay (NCI).

Some test systems named below: HOP-92 NSCLC; OVCAR-8 ovarian; SF-268 CNS; NCI-H226 lung; UO-31 renal; OVCAR-4 ovarian; CAKI-1 renal; SF-539 CNS; HCT-116 colon; LOX IMVI melanoma.
Common to all, as to test: growth of human tumour cells (NCI), 48 h

SMILES strings stand for the structures. Values joined by “and” are separate entries in the source; they are usually repeats but may differ in a detail not shown here. Equal entries are not always repeated.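 Dose response: 5 concentrations. Exposure: 48 h. Format: 96-well plates. Endpoint: linear interpolation; highest concentration if not reached. GI50: concentration for 50% inhibition of growth. TGI marks complete inhibition of growth.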

`CC(=O)OCC1OC(n2c(-c3ccc(Cl)cc3)ccc(C#N)c2=S)C(OC(C)=O)C(OC(C)=O)C1OC(C)=O` (stereo not given): the GI50 is 3.96 µM and 22.2 µM in the assay on HOP-92 NSCLC; 16.4 µM and 34.9 µM in the assay with OVCAR-8 ovarian; 5.5 µM and 34.9 µM with SF-268 CNS; > 100 µM and 19.9 µM in the assay on OVCAR-4 ovarian; more than 100 µM in the assay with CAKI-1 renal. The TGI is 18.8 µM and > 100 µM in the assay on HOP-92 NSCLC; more than 100 µM in the assay with OVCAR-8 ovarian; more than 100 µM in the assay on SF-268 CNS; more than 100 µM in the assay on NCI-H226 lung; more than 100 µM in the assay on UO-31 renal; > 100 µM and 93.3 µM in the assay on OVCAR-4 ovarian. Also, the TGI is more than 100 µM in the assay with CAKI-1 renal; 99 µM and > 100 µM in the assay with SF-539 CNS; more than 100 µM in the assay on HCT-116 colon; more than 100 µM in the assay with LOX IMVI melanoma.
On to `O=S(=O)(Nc1ccccc1Cl)c1ccc(-c2cnc(C3CC3)o2)cc1`, for which the GI50 was 0.324 µM in the assay with HOP-92 NSCLC; 1.22 µM in the assay on OVCAR-8 ovarian; 12.4 µM in the assay on SF-268 CNS; 4.84 µM in the assay on NCI-H226 lung; 0.832 µM in the assay with UO-31 renal; 4.21 µM in the assay with OVCAR-4 ovarian. For the same compound, the GI50 is 0.321 µM in the assay on CAKI-1 renal, 0.332 µM in the assay on SF-539 CNS, 0.401 µM in the assay on HCT-116 colon and 0.79 µM in the assay with LOX IMVI melanoma. In addition, the TGI is 7.28 µM in the assay with HOP-92 NSCLC; more than 100 µM in the assay with OVCAR-8 ovarian; more than 100 µM in the assay with SF-268 CNS; more than 68.4 µM in the assay on NCI-H226 lung; more than 77.1 µM in the assay with UO-31 renal; more than 100 µM with OVCAR-4 ovarian. Further, the TGI was 82 µM with CAKI-1 renal, 2.33 µM in the assay on SF-539 CNS, more than 75.5 µM in the assay with HCT-116 colon and more than 90.8 µM with LOX IMVI melanoma.
Regarding `Cc1ccc(NC(=O)C2C(=O)N(c3ccc(C)cc3)C(=O)/C2=N\NC(N)=S)cc1` (stereo not given), the TGI with HOP-92 NSCLC, in the assay on OVCAR-8 ovarian, with SF-268 CNS, in the assay with NCI-H226 lung, in the assay on UO-31 renal and in the assay with OVCAR-4 ovarian was more than 100 µM each time. In addition, the TGI in the assay with CAKI-1 renal, in the assay with SF-539 CNS, in the assay with HCT-116 colon and in the assay with LOX IMVI melanoma was more than 100 µM throughout.
